# Results taken from publication PMC3075274, “Expression and Activity of a Novel Cathelicidin from Domestic Cats” (PLoS ONE, 2011).
# Like-named read-outs stand apart in the source and are kept apart here. Where no end group is shown, it is not given here.
# How the values were obtained:
# [1] = tested on: E. coli D31; settings: radial diffusion assay, 10 mM sodium phosphate pH 7.4, peptide 4-1000 ng/µl in 0.05% acetic acid, 3 h 37°C then overlay overnight
# Method: (§1) A radial diffusion antimicrobial assay was used to assess the antimicrobial activity of feCath and LL-37 [24]. Briefly, overnight bacterial cultures were seeded into fresh tryptic soy broth (TSB). Bacteria was grown to an optical density of 0.2 at A600, pelleted and resuspended in an equal volume of 10 mM sodium phosphate buffer, pH 7.4. Resuspended bacteria were added to underlay minimal-media agarose, and peptide, at various concentrations (1000 ng/µl, 333 ng/µl, 111 ng/µl, 37 ng/µl, 12 ng/µl and 4 ng/µl, dissolved in 0.05% acetic acid), was instilled into adjacent punch-wells. Buffer alone (0.05% acetic acid) was used as the negative control. After 3 hours of incubation at 37°C, overlay nutrient rich agarose was added and allowed to incubate overnight. The following day, zones of clearance were measured. To quantitate zones of clearance, the diameter of the agarose punch (3 mm) was subtracted from the diameter of antimicrobial clearance (in mm), and the resulting number was multiplied by 10.
# [2] = tested on: Salmonella enterica serovar Typhimurium (IR715)
# Method: as §1
# [3] = tested on: Listeria monocytogenes; settings: radial diffusion assay, 10 mM sodium phosphate pH 7.4, peptide 4-1000 ng/µl in 0.05% acetic acid, 3 h 37°C then overlay overnight
# Method: as §1
# [4] = tested on: Staphylococcus pseudintermedius (clinical isolate); settings: radial diffusion assay, 10 mM sodium phosphate pH 7.4, peptide 4-1000 ng/µl in 0.05% acetic acid, 3 h 37°C then overlay overnight
# Method: as §1
# [5] = tested on: HaeIII digested Phi-X174 phage DNA; experiment: DNA binding assay (gel electrophoresis, retarded migration); settings: Phi-X174 HaeIII DNA 20 ng/µl; peptide 10, 30, 100 ng/µl; 5 min room temperature, 0.05% acetic acid; agarose gel, ethidium bromide
# Method: Hae-III digested phage DNA Phi-X174 (20 ng/µl) (Roche) was incubated with varying amounts of LL-37, feCath and magainin (10 ng/µl, 30 ng/µl and 100 ng/µl) for 5 min at room temperature. The entire reaction was resolved using agarose gel electrophoresis (1% w/v) and stained with ethidium bromide.
# Figure 6 Gel electrophoresis of DNA binding assay. A DNA ladder (HaeIII digested Phi-X174, 200 ng) was incubated with increasing concentrations of peptide (100 ng, 300 ng, 1000 ng) for 5 minutes in 0.05% acetic acid at room temperature. The reaction mixture was resolved using agarose gel electrophoresis ([…]). Arrow indicates retarded migration of Phi-X174 DNA into the gel.
Compound,MIC [1] [µg/mL],"MIC ([2]; Salmonella enterica serovar Typhimurium (IR715), radial diffusion assay, 10 mM sodium phosphate pH 7.4, peptide 4-1000 ng/µl in 0.05% acetic acid, 3 h 37°C then overlay overnight) [µg/mL]",MIC [3] [µg/mL],MIC [4] [µg/mL],DNA binding (retardation of DNA migration into the gel) [5],"MIC ([2]; serovar Typhimurium (IR715, 3 h, pH 7.4)) [µg/mL]"
"CC[C@H](C)[C@H](NC(=O)[C@H](CCCCN)NC(=O)[C@H](CCC(=O)O)NC(=O)[C@H](CCCCN)NC(=O)[C@H](CO)NC(=O)[C@H](CCCCN)NC(=O)[C@H](CCCNC(=N)N)NC(=O)[C@H](Cc1ccccc1)NC(=O)[C@H](Cc1ccccc1)NC(=O)[C@H](CC(=O)O)NC(=O)CNC(=O)[C@H](CC(C)C)NC(=O)[C@@H](N)CC(C)C)C(=O)NCC(=O)N[C@@H](CCCCN)C(=O)N[C@@H](CCC(=O)O)C(=O)N[C@@H](Cc1ccccc1)C(=O)N[C@@H](CCCCN)C(=O)N[C@@H](CCCNC(=N)N)C(=O)N[C@H](C(=O)N[C@H](C(=O)N[C@@H](CCC(N)=O)C(=O)N[C@@H](CCCNC(=N)N)C(=O)N[C@H](C(=O)N[C@@H](CCCCN)C(=O)N[C@@H](CC(=O)O)C(=O)N[C@@H](Cc1ccccc1)C(=O)N[C@@H](CC(C)C)C(=O)N[C@@H](CCCNC(=N)N)C(=O)N[C@@H](CC(N)=O)C(=O)N[C@@H](CC(C)C)C(=O)N[C@H](C(=O)N1CCC[C@H]1C(=O)N[C@@H](CCCNC(=N)N)C(=O)N[C@H](C(=O)N[C@@H](CCC(=O)O)C(=O)N[C@@H](CO)C(=O)O)[C@@H](C)O)C(C)C)[C@@H](C)CC)C(C)C)[C@@H](C)CC [LL-37, reference compound]",5,12,7,15,–,–
Magainin,–,–,–,–,lacks this ability to bind DNA,–
QLGELIQQGGQKIVEKIQKIGQRIRDFFSNLRPRQEA [feCath],21,–,–,–,–,29
